The structures appear in SMILES notation.

Consider 26 molecules from patent US20240398784A1, “C-LINKED ISOQUINOLINE AMIDES AS LRRK2 INHIBITORS, PHARMACEUTICAL COMPOSITIONS, AND USES THEREOF” (Merck Sharp & Dohme LLC, priority 2021, published 2024).

For this assay, the target named is LRRK2 G2019S (Homo sapiens, UniProt Q5S007, G2019S). In words: LRRK2 G2019S Km ATP LanthaScreen assay. The assay is classed as biochemical. Particulars: read-out: LRRK2 pIC50 (converted).
LRRK2 G2019S, sequence (Q5S007 whole entry G2019S): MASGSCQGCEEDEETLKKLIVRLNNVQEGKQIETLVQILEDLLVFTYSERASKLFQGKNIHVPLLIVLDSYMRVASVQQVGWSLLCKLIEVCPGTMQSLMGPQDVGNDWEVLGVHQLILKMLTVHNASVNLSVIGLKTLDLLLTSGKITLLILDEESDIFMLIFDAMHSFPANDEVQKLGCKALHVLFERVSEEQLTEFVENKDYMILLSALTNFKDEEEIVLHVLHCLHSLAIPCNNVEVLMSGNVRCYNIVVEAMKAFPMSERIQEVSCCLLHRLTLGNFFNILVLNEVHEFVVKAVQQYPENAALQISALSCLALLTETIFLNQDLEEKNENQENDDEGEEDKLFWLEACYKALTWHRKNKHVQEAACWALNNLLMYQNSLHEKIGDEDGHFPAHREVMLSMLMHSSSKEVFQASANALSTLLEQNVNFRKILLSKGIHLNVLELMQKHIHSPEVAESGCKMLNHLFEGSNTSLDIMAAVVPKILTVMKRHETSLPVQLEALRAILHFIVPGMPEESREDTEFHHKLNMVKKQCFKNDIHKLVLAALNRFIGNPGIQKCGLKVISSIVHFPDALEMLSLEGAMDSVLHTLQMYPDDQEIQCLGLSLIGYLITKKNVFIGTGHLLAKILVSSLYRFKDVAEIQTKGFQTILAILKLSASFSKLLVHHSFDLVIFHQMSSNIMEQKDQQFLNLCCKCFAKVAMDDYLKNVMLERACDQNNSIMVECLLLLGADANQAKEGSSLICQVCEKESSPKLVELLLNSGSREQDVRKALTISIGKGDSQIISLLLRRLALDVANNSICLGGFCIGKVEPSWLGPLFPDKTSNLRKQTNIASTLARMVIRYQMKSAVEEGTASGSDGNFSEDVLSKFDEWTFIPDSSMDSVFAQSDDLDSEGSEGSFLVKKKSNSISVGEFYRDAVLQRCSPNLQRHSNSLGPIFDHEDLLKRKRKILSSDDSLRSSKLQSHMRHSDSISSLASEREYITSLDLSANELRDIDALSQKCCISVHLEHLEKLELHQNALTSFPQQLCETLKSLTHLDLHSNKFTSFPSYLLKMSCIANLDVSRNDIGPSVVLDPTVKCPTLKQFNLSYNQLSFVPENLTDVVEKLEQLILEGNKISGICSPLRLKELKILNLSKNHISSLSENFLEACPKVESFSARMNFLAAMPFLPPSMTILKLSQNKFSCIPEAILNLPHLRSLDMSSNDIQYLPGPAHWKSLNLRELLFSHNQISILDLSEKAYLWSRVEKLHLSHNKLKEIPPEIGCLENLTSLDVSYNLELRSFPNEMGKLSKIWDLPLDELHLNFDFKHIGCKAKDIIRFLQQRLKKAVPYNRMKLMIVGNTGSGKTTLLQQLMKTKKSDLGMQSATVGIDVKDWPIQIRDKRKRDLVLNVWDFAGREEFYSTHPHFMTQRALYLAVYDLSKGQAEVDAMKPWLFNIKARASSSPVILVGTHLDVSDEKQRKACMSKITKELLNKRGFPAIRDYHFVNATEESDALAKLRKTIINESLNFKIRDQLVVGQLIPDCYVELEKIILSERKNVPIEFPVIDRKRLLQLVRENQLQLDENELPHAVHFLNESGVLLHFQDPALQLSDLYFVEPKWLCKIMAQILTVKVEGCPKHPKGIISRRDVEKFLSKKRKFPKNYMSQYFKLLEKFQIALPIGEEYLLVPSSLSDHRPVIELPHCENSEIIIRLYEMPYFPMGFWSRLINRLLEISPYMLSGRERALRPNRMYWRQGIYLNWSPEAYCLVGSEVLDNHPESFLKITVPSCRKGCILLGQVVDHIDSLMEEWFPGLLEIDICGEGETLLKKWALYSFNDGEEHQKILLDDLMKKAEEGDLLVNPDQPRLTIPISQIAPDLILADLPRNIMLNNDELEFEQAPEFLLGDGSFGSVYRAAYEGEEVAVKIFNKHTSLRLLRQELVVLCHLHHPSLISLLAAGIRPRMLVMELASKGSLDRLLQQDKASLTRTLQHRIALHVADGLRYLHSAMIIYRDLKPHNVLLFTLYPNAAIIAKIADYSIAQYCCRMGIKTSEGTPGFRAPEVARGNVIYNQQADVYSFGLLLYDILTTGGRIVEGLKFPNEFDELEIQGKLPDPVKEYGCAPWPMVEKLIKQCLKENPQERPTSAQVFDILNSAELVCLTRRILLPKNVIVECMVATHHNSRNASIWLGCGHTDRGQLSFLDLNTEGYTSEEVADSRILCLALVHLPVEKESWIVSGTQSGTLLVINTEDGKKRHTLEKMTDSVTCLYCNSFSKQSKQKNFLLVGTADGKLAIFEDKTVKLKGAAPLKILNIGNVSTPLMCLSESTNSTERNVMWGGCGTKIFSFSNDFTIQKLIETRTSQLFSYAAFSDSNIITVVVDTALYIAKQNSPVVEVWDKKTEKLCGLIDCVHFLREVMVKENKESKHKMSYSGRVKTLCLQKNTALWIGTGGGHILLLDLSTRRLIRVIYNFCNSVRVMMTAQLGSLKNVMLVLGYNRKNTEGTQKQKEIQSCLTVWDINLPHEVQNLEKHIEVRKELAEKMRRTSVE
For `CC(C)Cn1nccc1C1CC1C(=O)Nc1cc2cc(C3CCN(C4(C)COCC4O)CC3)c(Cl)cc2cn1` (single isomer, unassigned) [Ex-4.62, N-(7-chloro-6-(1-(4-hydroxy-3-methyltetrahydrofuran-3-yl)piperidin-4-yl)isoquinolin-3-yl)-2-(1-isobutyl-1H-pyrazol-5-yl)cyclopropane-1-carboxamide], the IC50 is 81300 µM.

With `CC(C)n1nccc1C1CC1C(=O)Nc1cc2cc(C3CCN(C4(C)COCC4O)CC3)c(Cl)cc2cn1` (single isomer, unassigned) [Ex-4.63, N-(7-chloro-6-(1-(4-hydroxy-3-methyltetrahydrofuran-3-yl)piperidin-4-yl)isoquinolin-3-yl)-2-(1-isopropyl-1H-pyrazol-5-yl)cyclopropane-1-carboxamide], the IC50 is 0.0224 µM.

Regarding `CC(C)n1nccc1C1CC1C(=O)Nc1cc2cc(C3CCN(C4(C)COCC4O)CC3)c(Cl)cc2cn1` (single isomer, unassigned) [Ex-4.64, N-(7-chloro-6-(1-(4-hydroxy-3-methyltetrahydrofuran-3-yl)piperidin-4-yl)isoquinolin-3-yl)-2-(1-isopropyl-1H-pyrazol-5-yl)cyclopropane-1-carboxamide], the IC50 was 0.00245 µM.

Take `CC1(N2CCC(c3cc4cc(NC(=O)C5CC5c5ccco5)ncc4cc3Cl)CC2)COCC1O` (single isomer, unassigned) [Ex-4.65, N-(7-chloro-6-(1-(4-hydroxy-3-methyltetrahydrofuran-3-yl)piperidin-4-yl)isoquinolin-3-yl)-2-(furan-2-yl)cyclopropane-1-carboxamide]: the IC50 was 0.000708 µM.

Take `CC1(N2CCC(c3cc4cc(NC(=O)C5CC5c5ccco5)ncc4cc3Cl)CC2)COCC1O` (single isomer, unassigned) [Ex-4.66, N-(7-chloro-6-(1-(4-hydroxy-3-methyltetrahydrofuran-3-yl)piperidin-4-yl)isoquinolin-3-yl)-2-(furan-2-yl)cyclopropane-1-carboxamide]: the IC50 was 8.13e-05 µM.

`CC1(N2CCC(c3cc4cc(NC(=O)C5CC5C5CCOCC5)ncc4cc3Cl)CC2)COCC1O` (single isomer, unassigned) [Ex-4.67, N-(7-chloro-6-(1-(4-hydroxy-3-methyltetrahydrofuran-3-yl)piperidin-4-yl)isoquinolin-3-yl)-2-(tetrahydro-2H-pyran-4-yl)cyclopropane-1-carboxamide]: the IC50 is 8.13e-05 µM.

As to `CC1(N2CCC(c3cc4cc(NC(=O)C5CC5C5CCCO5)ncc4cc3Cl)CC2)COCC1O` (single isomer, unassigned) [Ex-4.69, N-(7-chloro-6-(1-(4-hydroxy-3-methyltetrahydrofuran-3-yl)piperidin-4-yl)isoquinolin-3-yl)-2-(tetrahydrofuran-2-yl)cyclopropane-1-carboxamide], the IC50 is 8.13e-05 µM.

Take `CC1(N2CCC(c3cc4cc(NC(=O)C5CC5C5CCCCO5)ncc4cc3Cl)CC2)COCC1O` (single isomer, unassigned) [Ex-4.71, N-(7-chloro-6-(1-(4-hydroxy-3-methyltetrahydrofuran-3-yl)piperidin-4-yl)isoquinolin-3-yl)-2-(tetrahydro-2H-pyran-2-yl)cyclopropane-1-carboxamide]: the IC50 is 8.13e-05 µM.

`CC1(N2CCC(c3cc4cc(NC(=O)C5CCC5c5ccccn5)ncc4cc3Cl)CC2)COCC1O` (single isomer, unassigned) [Ex-4.73, N-(7-chloro-6-(1-(4-hydroxy-3-methyltetrahydrofuran-3-yl)piperidin-4-yl)isoquinolin-3-yl)-2-(pyridin-2-yl)cyclobutane-1-carboxamide]: the IC50 is 0.661 µM.

As for `CC1(N2CCC(c3cc4cc(NC(=O)C5CCC5c5ccccn5)ncc4cc3Cl)CC2)COCC1O` (single isomer, unassigned) [Ex-4.74, N-(7-chloro-6-(1-(4-hydroxy-3-methyltetrahydrofuran-3-yl)piperidin-4-yl)isoquinolin-3-yl)-2-(pyridin-2-yl)cyclobutane-1-carboxamide], the IC50 was 1.78 µM.

As for `CC1(N2CCC(c3cc4cc(NC(=O)C5CC(c6ccccn6)C5)ncc4cc3Cl)CC2)COCC1O` (single isomer, unassigned) [Ex-4.75, N-(7-chloro-6-(1-(4-hydroxy-3-methyltetrahydrofuran-3-yl)piperidin-4-yl)isoquinolin-3-yl)-3-(pyridin-2-yl)cyclobutane-1-carboxamide], the IC50 is 0.1 µM.

As to `CC1(N2CCC(c3cc4cc(NC(=O)C5CC(c6ccccn6)C5)ncc4cc3Cl)CC2)COCC1O` (single isomer, unassigned) [Ex-4.76, N-(7-chloro-6-(1-(4-hydroxy-3-methyltetrahydrofuran-3-yl)piperidin-4-yl)isoquinolin-3-yl)-3-(pyridin-2-yl)cyclobutane-1-carboxamide], the IC50 is 0.0417 µM.

Turning to `Cc1cc2cnc(NC(=O)C3CC3c3ccccn3)cc2cc1C1CCN(C2(C)COCC2O)CC1` (single isomer, unassigned) [Ex-4.77, N-(6-(1-(4-hydroxy-3-methyltetrahydrofuran-3-yl)piperidin-4-yl)-7-methylisoquinolin-3-yl)-2-(pyridin-2-yl)cyclopropane-1-carboxamide], the IC50 was 0.00562 µM.

As for `Cc1cc2cnc(NC(=O)C3CC3c3ccccn3)cc2cc1C1CCN(C2(C)COCC2O)CC1` (single isomer, unassigned) [Ex-4.78, N-(6-(1-(4-hydroxy-3-methyltetrahydrofuran-3-yl)piperidin-4-yl)-7-methylisoquinolin-3-yl)-2-(pyridin-2-yl)cyclopropane-1-carboxamide], the IC50 is 8.13e-05 µM.

Consider `O=C(Nc1cc2cc(C3CCC(N4CC(F)C4)CC3)c(Cl)cc2cn1)C1CC1c1ccccn1` (single isomer, unassigned) [Ex-5.1, (1R,2R or 1S,2S)-N-(7-chloro-6-((cis or trans)-4-(3-fluoroazetidin-1-yl)cyclohexyl)isoquinolin-3-yl)-2-(pyridin-2-yl)cyclopropane-1-carboxamide], for which the IC50 is 0.0525 µM.

Regarding `O=C(Nc1cc2cc(C3CCC(N4CC(F)C4)CC3)c(Cl)cc2cn1)C1CC1c1ccccn1` (single isomer, unassigned) [Ex-5.2, (1R,2R or 1S,2S)-N-(7-chloro-6-((cis or trans)-4-(3-fluoroazetidin-1-yl)cyclohexyl)isoquinolin-3-yl)-2-(pyridin-2-yl)cyclopropane-1-carboxamide], the IC50 is 0.661 µM.

On to `O=C(Nc1cc2cc(C3CCC(N4CC(F)(F)C4)CC3)c(Cl)cc2cn1)C1CC1c1ccccn1` (single isomer, unassigned) [Ex-5.3, N-(7-chloro-6-(4-(3,3-difluoroazetidin-1-yl)cyclohexyl)isoquinolin-3-yl)-2-(pyridin-2-yl)cyclopropane-1-carboxamide], for which the IC50 is 0.11 µM.

As to `O=C(Nc1cc2cc(C3CCC(N4CC(F)(F)C4)CC3)c(Cl)cc2cn1)C1CC1c1ccccn1` (single isomer, unassigned) [Ex-5.4, N-(7-chloro-6-(4-(3,3-difluoroazetidin-1-yl)cyclohexyl)isoquinolin-3-yl)-2-(pyridin-2-yl)cyclopropane-1-carboxamide], the IC50 was 0.0479 µM.

For `O=C(Nc1cc2cc(C3CCC(N4CC(F)(F)C4)CC3)c(Cl)cc2cn1)C1CC1c1ccccn1` (single isomer, unassigned) [Ex-5.5, N-(7-chloro-6-(4-(3,3-difluoroazetidin-1-yl)cyclohexyl)isoquinolin-3-yl)-2-(pyridin-2-yl)cyclopropane-1-carboxamide], the IC50 was 0.000275 µM.

For the molecule `O=C(Nc1cc2cc(C3CCC(N4CC(F)(F)C4)CC3)c(Cl)cc2cn1)C1CC1c1ccccn1` (single isomer, unassigned) [Ex-5.6, N-(7-chloro-6-(4-(3,3-difluoroazetidin-1-yl)cyclohexyl)isoquinolin-3-yl)-2-(pyridin-2-yl)cyclopropane-1-carboxamide], the IC50 is 0.912 µM.

Consider `Cn1cc(C2CC2C(=O)Nc2cc3cc(C4CCC(N5CC(F)C5)CC4)c(Cl)cc3cn2)cn1` (single isomer, unassigned) [Ex-5.7, N-(7-cchloro-6-(4-(3-fluoroazetidin-1-yl)cyclohexyl)isoquinolin-3-yl)-2-(1-methyl-1H-pyrazol-4-yl)cyclopropane-1-carboxamide], for which the IC50 was 0.00191 µM.

As to `Cn1cc(C2CC2C(=O)Nc2cc3cc(C4CCC(N5CC(F)C5)CC4)c(Cl)cc3cn2)cn1` (single isomer, unassigned) [Ex-5.8, N-(7-cchloro-6-(4-(3-fluoroazetidin-1-yl)cyclohexyl)isoquinolin-3-yl)-2-(1-methyl-1H-pyrazol-4-yl)cyclopropane-1-carboxamide], the IC50 is 0.00871 µM.

In the case of `CC1(C)CC(C(=O)Nc2cc3cc(C4CCC(N5CCC(F)C5)CC4)c(Cl)cc3cn2)CCO1` (single isomer, unassigned) [Ex-5.9, N-(7-chloro-6-(4-(3-fluoropyrrolidin-1-yl)cyclohexyl)isoquinolin-3-yl)-2,2-dimethyltetrahydro-2H-pyran-4-carboxamid], the IC50 is 0.00178 µM.

As to `CC1(C)CC(C(=O)Nc2cc3cc(C4CCC(N5CCC(F)C5)CC4)c(Cl)cc3cn2)CCO1` (single isomer, unassigned) [Ex-5.10, N-(7-chloro-6-(4-(3-fluoropyrrolidin-1-yl)cyclohexyl)isoquinolin-3-yl)-2,2-dimethyltetrahydro-2H-pyran-4-carboxamid], the IC50 was 0.00302 µM.

On to `CC1(C)CC(C(=O)Nc2cc3cc(C4CCC(N5CCC(F)C5)CC4)c(Cl)cc3cn2)CCO1` (single isomer, unassigned) [Ex-5.11, N-(7-chloro-6-(4-(3-fluoropyrrolidin-1-yl)cyclohexyl)isoquinolin-3-yl)-2,2-dimethyltetrahydro-2H-pyran-4-carboxamid], for which the IC50 was 0.0708 µM.

Regarding `CC1(C)CC(C(=O)Nc2cc3cc(C4CCC(N5CCC(F)C5)CC4)c(Cl)cc3cn2)CCO1` (single isomer, unassigned) [Ex-5.12, N-(7-chloro-6-(4-(3-fluoropyrrolidin-1-yl)cyclohexyl)isoquinolin-3-yl)-2,2-dimethyltetrahydro-2H-pyran-4-carboxamid], the IC50 was 0.00224 µM.
